Test results published in patent publication US10208056B2, “Condensed tricyclic compounds as protein kinase inhibitors” (FUNDACIÓN DEL SECTOR PÚBLICO ESTATAL CENTRO NACIONAL DE …, priority 2015, dated 2019).

Assays:
intracellular HASPIN [1] = biological target: T1, intracellular HASPIN (Homo sapiens (Human), UniProt Q8TF76); assay: Cellular HASPIN inhibition assay, western blot phospho H3T3 in synchronized SW620 cells; assay type: cell-based; conditions: semiquantitative, read-out: SW620 PH3(T3) in synchronized cells
T1 sequence (Q8TF76 whole entry): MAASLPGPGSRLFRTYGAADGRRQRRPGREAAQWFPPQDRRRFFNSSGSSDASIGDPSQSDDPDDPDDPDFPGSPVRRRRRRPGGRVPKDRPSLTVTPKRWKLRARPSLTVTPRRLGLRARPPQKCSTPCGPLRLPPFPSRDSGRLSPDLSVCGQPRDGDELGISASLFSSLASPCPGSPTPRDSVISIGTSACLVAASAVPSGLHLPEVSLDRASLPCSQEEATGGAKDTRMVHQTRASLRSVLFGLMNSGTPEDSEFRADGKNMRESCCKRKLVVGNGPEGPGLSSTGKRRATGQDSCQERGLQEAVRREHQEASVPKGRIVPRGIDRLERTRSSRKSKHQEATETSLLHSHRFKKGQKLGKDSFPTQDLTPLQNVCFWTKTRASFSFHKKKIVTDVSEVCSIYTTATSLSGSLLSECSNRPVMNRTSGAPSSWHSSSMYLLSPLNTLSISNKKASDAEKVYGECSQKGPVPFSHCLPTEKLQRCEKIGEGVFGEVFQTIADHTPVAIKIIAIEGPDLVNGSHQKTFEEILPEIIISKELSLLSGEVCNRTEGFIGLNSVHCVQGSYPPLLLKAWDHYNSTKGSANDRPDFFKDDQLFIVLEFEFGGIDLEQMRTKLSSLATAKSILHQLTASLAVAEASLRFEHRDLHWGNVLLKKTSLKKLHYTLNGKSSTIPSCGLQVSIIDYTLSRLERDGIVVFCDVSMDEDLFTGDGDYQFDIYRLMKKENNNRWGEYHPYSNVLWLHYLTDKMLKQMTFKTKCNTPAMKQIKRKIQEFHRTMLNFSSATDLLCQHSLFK
Experimental: Compounds can be screened for their ability to inhibit intracellular HASPIN using a western blot assay to detect phosphorylation of the HASPIN substrate H3T3 in synchronized cells. SW620 cells are plated at 200000 cells per well in 6-well plates (Solmeglas 13118) in RPMI media (Sigma-Aldrich R6504) supplemented with 10% foetal bovine serum (Sigma-Aldrich F7524), Penicillin/Streptomycin solution diluted 1:100 (Gibco 15070-063), and fungizone (Gibco, 15290-018), and allowed to adhere overnight at 37° C. in 5% CO2. Cells are then treated 16 h hours with Nocadazole (Sigma-Aldrich M1404) at 250 ng/ml to arrest them in mitosis. Proteasoma inhibitor MG132 (Sigma-Aldrich C2211) is added to a final concentration of […] to keep cells arrested in mitosis. Compounds are then added to the cell media from a final concentration of 10 μM in 10-fold serial dilutions and the cells are incubated at 37° C. in 5% CO2. After 1 hour and 30 minutes of treatment with the compounds, the cells are washed in PBS, lysed adding 100 μl of protein lysis buffer (62.5 mM Tris pH 6.8 al 6.25%, 2% SDS y 10% glycerol) incubation 10 minutes at room temperature and heating at 95° C. 10 min. The protein content of the lysates is determined by DC protein assay (Biorad, Ref. 5000116). The proteins are resolved by SDS-PAGE and transferred to nitrocellulose membrane (VWR International eurolab, Ref. 732-4007). The membranes are incubated overnight at 4° C. with antibodies specific for total H3 (Millipore #07424), phosphothreonine-3 H3 (Cell Signaling Ref. 14269) they are washed and then incubated with IRDye800 conjugated anti-mouse (Pierce/Cultek, 35521) and Alexa Fluor 680 goat anti-rabbit IgG secondary antibodies (Invitrogen, A21076). The bands are visualized and quantified using an Odyssey infrared imaging system (Li-Cor Biosciences). The percentage of phosphorylated H3 vs total H3 in synchronized cells is taken as hundred percent of phosphorylation. The percentage of H3 phosphorylation is finally plotted against concentration for each compound and EC50s for intracellular HASPIN inhibition are calculated using ActivityBase from IDBS.

Haspin kinase = Haspin kinase (Homo sapiens (Human), UniProt Q8TF76); assay: Haspin kinase assay (ADP-Glo); assay type: biochemical; conditions: ATP 150 μM
Sequence of Haspin kinase (Q8TF76 484-798): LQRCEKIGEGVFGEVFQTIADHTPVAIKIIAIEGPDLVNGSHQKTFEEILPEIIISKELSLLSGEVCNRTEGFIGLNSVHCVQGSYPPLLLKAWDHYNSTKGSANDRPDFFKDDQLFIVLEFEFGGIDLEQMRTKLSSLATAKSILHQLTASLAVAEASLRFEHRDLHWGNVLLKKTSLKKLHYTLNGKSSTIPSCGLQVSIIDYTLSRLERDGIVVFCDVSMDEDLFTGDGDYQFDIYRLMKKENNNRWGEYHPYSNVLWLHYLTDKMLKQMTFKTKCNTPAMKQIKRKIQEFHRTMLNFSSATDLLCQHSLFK
Outline: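 Compounds in 1:3 serial dilutions (1% DMSO final) were incubated 60 min at 30 °C with 20 nM recombinant GST-Haspin kinase domain and 150 μM ATP, without substrate, in pH 7.4 HEPES/MgCl2 buffer. ADP formed was read by luciferase luminescence and normalized to uninhibited enzyme to give % inhibition.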

CDK8/Cyclin C = CDK8/Cyclin C (Homo sapiens (Human), UniProt P49336); assay: CDK8/Cyclin C binding assay (LanthaScreen Eu-Kinase Binding Assay); conditions: binding assay
Sequence of CDK8/Cyclin C (P49336 whole entry): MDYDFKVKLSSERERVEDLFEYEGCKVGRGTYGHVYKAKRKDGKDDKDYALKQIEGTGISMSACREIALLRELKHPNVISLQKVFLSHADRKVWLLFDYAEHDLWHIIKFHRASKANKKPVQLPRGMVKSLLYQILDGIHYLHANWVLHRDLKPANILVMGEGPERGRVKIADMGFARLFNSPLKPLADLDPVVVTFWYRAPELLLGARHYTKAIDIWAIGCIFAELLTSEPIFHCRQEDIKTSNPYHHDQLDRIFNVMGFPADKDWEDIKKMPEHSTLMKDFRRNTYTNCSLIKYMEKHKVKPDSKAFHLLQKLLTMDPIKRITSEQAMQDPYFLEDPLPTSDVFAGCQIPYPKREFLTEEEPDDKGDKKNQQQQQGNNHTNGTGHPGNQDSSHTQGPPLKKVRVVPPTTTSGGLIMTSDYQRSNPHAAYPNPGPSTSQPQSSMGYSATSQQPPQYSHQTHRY
Sequence of CDK8/Cyclin C (P24863 whole entry partner): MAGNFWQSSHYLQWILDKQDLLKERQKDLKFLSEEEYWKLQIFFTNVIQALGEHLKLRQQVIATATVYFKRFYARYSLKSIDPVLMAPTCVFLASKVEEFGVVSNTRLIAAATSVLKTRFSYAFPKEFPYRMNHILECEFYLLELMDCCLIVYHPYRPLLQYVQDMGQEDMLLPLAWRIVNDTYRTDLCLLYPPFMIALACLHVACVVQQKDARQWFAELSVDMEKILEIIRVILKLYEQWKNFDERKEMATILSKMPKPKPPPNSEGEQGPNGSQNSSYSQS
Experimental: The enzyme has been purchase from Invitrogen (PV4402) as a dimer of full-length His-tagged recombinant human proteins.
Assays were performed in 384-well plates. The final read out was generated using an EnVision plate reader (Perkin-Elmer).

intracellular CDK8 [2] = biological target: T2, intracellular CDK8 (Homo sapiens (Human), UniProt P49336); assay: Cellular CDK8 inhibition assay, western blot P-STAT1 (S727) in IFN-γ treated SW620 cells; assay type: cell-based; conditions: SW620, IFNγ treated, semiquantitative; read-out: SW620 P-STAT1(S727) w IFNγ
T2 sequence (P49336 whole entry): as the sequence (P49336 whole entry) above
T2 sequence (P24863 whole entry partner): as the sequence (P24863 whole entry partner) above
T2 sequence (Q93074 whole entry partner): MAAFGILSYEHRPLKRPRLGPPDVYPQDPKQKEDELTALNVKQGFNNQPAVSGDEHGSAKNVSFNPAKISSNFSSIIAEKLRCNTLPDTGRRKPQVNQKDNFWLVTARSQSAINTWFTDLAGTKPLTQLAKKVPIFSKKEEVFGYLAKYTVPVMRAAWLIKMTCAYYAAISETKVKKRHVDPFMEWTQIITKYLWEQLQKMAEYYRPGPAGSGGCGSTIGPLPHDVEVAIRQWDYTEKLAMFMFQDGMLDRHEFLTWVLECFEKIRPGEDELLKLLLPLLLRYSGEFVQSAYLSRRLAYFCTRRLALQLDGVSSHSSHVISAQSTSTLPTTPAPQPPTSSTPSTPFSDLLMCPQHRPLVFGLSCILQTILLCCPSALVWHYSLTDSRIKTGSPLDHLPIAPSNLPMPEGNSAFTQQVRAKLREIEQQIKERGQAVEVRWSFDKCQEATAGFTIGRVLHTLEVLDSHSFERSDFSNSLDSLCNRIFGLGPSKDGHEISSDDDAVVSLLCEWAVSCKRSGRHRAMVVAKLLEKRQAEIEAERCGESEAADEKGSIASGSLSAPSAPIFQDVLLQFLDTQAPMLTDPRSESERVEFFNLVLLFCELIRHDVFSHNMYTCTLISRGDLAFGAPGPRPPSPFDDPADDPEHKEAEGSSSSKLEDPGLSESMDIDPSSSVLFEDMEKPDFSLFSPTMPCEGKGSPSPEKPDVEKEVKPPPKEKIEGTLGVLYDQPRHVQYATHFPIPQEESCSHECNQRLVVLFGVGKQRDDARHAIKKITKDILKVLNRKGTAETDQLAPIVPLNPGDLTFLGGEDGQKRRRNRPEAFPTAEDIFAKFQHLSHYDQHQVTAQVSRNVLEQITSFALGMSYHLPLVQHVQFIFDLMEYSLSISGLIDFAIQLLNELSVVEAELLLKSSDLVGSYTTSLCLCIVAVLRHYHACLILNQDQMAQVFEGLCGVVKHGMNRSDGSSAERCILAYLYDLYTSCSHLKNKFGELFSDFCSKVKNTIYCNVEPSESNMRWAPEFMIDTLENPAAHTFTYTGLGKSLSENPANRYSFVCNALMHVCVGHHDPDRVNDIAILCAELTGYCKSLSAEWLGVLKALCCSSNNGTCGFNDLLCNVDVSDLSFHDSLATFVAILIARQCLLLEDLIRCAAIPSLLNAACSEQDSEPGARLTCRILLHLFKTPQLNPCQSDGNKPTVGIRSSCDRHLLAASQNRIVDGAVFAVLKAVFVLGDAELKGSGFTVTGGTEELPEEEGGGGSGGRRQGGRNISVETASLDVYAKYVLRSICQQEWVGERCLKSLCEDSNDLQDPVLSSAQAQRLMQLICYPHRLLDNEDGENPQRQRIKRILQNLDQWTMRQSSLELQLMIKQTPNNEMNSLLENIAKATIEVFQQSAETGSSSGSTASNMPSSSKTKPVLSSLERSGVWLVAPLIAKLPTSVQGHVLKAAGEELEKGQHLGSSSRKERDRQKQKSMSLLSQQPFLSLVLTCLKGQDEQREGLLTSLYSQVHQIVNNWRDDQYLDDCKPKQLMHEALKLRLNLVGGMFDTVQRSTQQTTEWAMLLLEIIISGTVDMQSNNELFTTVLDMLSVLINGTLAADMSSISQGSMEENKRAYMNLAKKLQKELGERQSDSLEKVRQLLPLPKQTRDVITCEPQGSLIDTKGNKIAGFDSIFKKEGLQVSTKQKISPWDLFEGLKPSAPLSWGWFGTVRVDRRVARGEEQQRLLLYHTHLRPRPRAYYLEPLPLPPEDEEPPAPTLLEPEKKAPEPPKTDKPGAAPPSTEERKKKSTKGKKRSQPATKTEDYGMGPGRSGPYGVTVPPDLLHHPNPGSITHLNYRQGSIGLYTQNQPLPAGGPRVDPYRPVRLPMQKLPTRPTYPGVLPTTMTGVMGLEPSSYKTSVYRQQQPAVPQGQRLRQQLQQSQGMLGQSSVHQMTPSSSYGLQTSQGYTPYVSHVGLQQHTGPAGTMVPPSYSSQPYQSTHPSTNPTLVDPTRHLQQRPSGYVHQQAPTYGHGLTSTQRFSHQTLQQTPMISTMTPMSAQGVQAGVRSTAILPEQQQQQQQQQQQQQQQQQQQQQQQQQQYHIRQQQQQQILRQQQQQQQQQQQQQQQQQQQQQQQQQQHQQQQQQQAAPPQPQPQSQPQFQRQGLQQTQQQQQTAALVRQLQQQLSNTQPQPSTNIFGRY
Experimental: Compounds can be screened for their ability to inhibit intracellular CDK8 using a western blot assay to detect phosphorylation of the CDK8 substrate STAT1 (S727) in IFN-γ treated cells. SW620 cells are plated at 1*10^6 cells per well in 6-well plates (Solmeglas 13118) in RPMI media (Sigma-Aldrich R6504) supplemented with 10% foetal bovine serum (Sigma-Aldrich F7524), Penicillin/Streptomycin solution diluted 1:100 (Gibco 15070-063), and fungizone (Gibco, 15290-018), and allowed to adhere overnight at 37° C. in 5% CO2. Compounds are then added to the cell media from a final concentration of 10 μM in 10-fold serial dilutions and the cells are incubated at 37° C. in 5% CO2. After 1 hour, IFNγ (R&D systems Ref. RYD-285-IF-100) is added to a final concentration of […]. After 3 hours of treatment with IFNγ, the cells are washed in PBS, lysed adding 100 μl of protein lysis buffer (62.5 mM Tris pH 6.8 al 6.25%, 2% SDS y 10% glycerol) incubation 10 minutes at room temperature and heating at 95° C. 10 min. The protein content of the lysates is determined by DC protein assay (Biorad, Ref. 5000116). The proteins are resolved by SDS-PAGE and transferred to nitrocellulose membrane (VWR International eurolab, Ref. 732-4007). The membranes are incubated overnight at 4° C. with antibodies specific for total STAT1 (BD Transduction laboratory #610115), phosphoserine-727 STAT1 (Cell Signaling Ref. 9177) they are washed and then incubated with IRDye800 conjugated anti-mouse (Pierce/Cultek, 35521) and Alexa Fluor 680 goat anti-rabbit IgG secondary antibodies (Invitrogen, A21076). The bands are visualized and quantified using an Odyssey infrared imaging system (Li-Cor Biosciences). The percentage of phosphorylated STAT1 vs total STAT1 in cells treated with IFNγ is taken as hundred percent of phosphorylation. The percentage of STAT1 phosphorylation is finally plotted against concentration for each compound and EC50s for intracellular CDK8 inhibition are calculated using ActivityBase from IDBS.

SW620 [3] = assay: In vitro cell proliferation assay (CellTiter-Glo), SW620; assay type: cell-based, human; conditions: growth inhibition, semiquantitative; read-out: GI50 SW620
Experimental: (§1) The in vitro potency of the compounds was measured by the cell proliferation assay CellTiter-Glo® Luminescent Cell Viability Assay, commercially available from Promega Corp., Madison, Wis. This homogeneous assay method is based on the recombinant expression of Coleoptera luciferase (U.S. Pat. No. 5,583,024; U.S. Pat. No. 5,674,713; U.S. Pat. No. 5,700,670) and determines the number of viable cells in culture based on quantitation of the ATP present, an indicator of metabolically active cells (Crouch et al (1993) J. Immunol. Meth. 160:81-88; U.S. Pat. No. 6,602,677). The CellTiterGlo® Assay was conducted […] it amenable to automated high throughput screening (HTS) (Cree et al (1995) AntiCancer Drugs 6:398-404).
(§2) The homogeneous assay procedure involves adding the single reagent (CellTiter-Glo® Reagent) directly to cells cultured in serum-supplemented medium. Cell washing, removal of medium and multiple pipetting steps are not required. The system detects as few as 15 cells/well in a 96-well format in 10 minutes after adding reagent and mixing.
(§3) The homogeneous “add-mix-measure” format results in cell lysis and generation of a luminescent signal proportional to the amount of ATP present. The amount of ATP is directly proportional to the number of cells present in culture. The CellTiter-Glo® Assay generates a “glow-type” luminescent signal, produced by the luciferase reaction, which has a half-life generally greater than five hours, depending on cell type and medium used. Viable cells are reflected in relative luminescence units (RLU). The substrate, Beetle Luciferin, is oxidatively decarboxylated by recombinant firefly luciferase with concomitant conversion of ATP to AMP and generation of photons. The extended half-life eliminates the need to use reagent injectors and provides flexibility for continuous or batch mode processing of multiple plates. This cell proliferation assay can be used with various multiwell formats, e.g. 96 or 384 well format. Data can be recorded by luminometer or CCD camera imaging device. The luminescence output is presented as relative light units (RLU), measured over time.

intracellular HASPIN [4] = biological target: T1, intracellular HASPIN; assay: Endogenous phosphoH3 inhibition in SW620 cells growing in 10% FBS; assay type: cell-based; conditions: semiquantitative, read-out: SW620 pH3(T3)
Experimental: Endogenous phosphoH3 inhibition can be screened in cells growing in 10% FBS. Cells are plated as described before and treated for 8 h with compounds as described before. Then cells are lysated and phospho H3 evaluated as described before. The percentage of phosphorylated H3 vs total H3 in cells treated with DMSO is taken as hundred percent of phosphorylation. The percentage of H3 phosphorylation is finally plotted against concentration for each compound and EC50s for intracellular HASPIN inhibition are calculated using ActivityBase from IDBS.

Molm13 = assay: In vitro cell proliferation assay (CellTiter-Glo), Molm13; assay type: cell-based; conditions: growth inhibition, semiquantitative; read-out: GI50 Molm13
Experimental: as §1, §2, §3

CDK19/Cyclin C = CDK19/Cyclin C (Homo sapiens (Human), UniProt Q9BWU1); assay: CDK19/Cyclin C binding assay (LanthaScreen Eu-Kinase Binding Assay); conditions: read-out: CDK19-CYCC IC50
Sequence of CDK19/Cyclin C (Q9BWU1 whole entry): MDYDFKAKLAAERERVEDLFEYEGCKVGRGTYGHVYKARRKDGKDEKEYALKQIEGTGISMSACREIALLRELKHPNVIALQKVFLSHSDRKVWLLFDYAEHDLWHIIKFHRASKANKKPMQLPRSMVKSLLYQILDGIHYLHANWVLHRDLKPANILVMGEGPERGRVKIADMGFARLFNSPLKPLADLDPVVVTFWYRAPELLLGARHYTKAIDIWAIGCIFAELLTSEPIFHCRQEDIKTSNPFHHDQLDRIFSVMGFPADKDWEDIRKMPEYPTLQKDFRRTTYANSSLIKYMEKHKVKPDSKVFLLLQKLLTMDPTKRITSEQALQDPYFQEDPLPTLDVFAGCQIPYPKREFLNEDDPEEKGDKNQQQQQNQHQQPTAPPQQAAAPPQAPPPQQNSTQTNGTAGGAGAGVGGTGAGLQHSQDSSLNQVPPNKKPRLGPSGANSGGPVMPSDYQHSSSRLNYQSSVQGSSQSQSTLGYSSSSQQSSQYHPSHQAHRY
Sequence of CDK19/Cyclin C (P24863 whole entry partner): as the sequence (P24863 whole entry partner) above
Outline: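 LanthaScreen TR-FRET tracer-displacement format with 2 nM Cdk19-Cyclin C, 20 nM tracer and 2 nM Eu-anti-GST antibody. The buffer was 50 mM HEPES pH 7.5, 10 mM MgCl2, 1 mM EGTA, 0.01% Brij-35, with 1% DMSO final. Compounds were tested as 1:3 serial dilutions and incubated for 60 min at 25 °C.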

intracellular CDK8 [5] = biological target: T2, intracellular CDK8; assay: Endogenous phosphoSTAT1 inhibition in SW620 cells growing in 10% FBS; assay type: cell-based; conditions: semiquantitative, read-out: SW620 P-STAT1(S727)
Experimental: Endogenous phosphoSTAT1 inhibition can be screened in cells growing in 10% FBS. Cells are plated as described before and treated for 8 h with compounds as described before. Then cells are lysated and phospho STAT1 is evaluated as described before. The percentage of phosphorylated STAT1 vs total STAT1 in cells treated with DMSO is taken as hundred percent of phosphorylation. The percentage of STAT1 phosphorylation is finally plotted against concentration for each compound and EC50s for intracellular CDK8 inhibition are calculated using ActivityBase from IDBS.

MDA-MB-231 = assay: In vitro cell proliferation assay (CellTiter-Glo), MDA-MB-231; assay type: cell-based; conditions: growth inhibition, semiquantitative; read-out: GI50 MDA-MB-231
Experimental: as §1, §2, §3

MV4:11 = assay: In vitro cell proliferation assay (CellTiter-Glo), MV4:11; assay type: cell-based; conditions: growth inhibition, semiquantitative; read-out: GI50 MV4:11
Experimental: as §1, §2, §3

DU145 = assay: Combination assay, DU145; assay type: cell-based; conditions: Homo sapiens, DU-145; DU145, chemotherapeutic alone; read-out: Chemo GI50
Experimental: (§4) The combination index (CI) of combinations of certain example compounds and various chemotherapeutic agents in the CellTitetI-Glo® in vitro cell proliferation assays may be tested. A combination index score is calculated by the Chou and Talalay method (CalcuSyn software, Biosoft). The strength of synergy is scored using the ranking system Chou and Talalay: CI less than 0.8 indicates synergy, CI between 0.8 and 1.2 indicates additivity and CI greater than 1.2 indicates antagonism.
The EC50 values of representative combinations are also calculated. The individually measured EC50 values of the chemotherapeutic agent and the example compounds are compared to the EC50 value of the combination. The cell lines are characterised by tumor type. […] Blanco-Aparicio, Carmen; Collazo, Ana Maria Garcia; Oyarzabal, Julen; Leal, Juan F.; Albaran, Maria Isabel; Lima, Francisco Ramos; Pequeno, Belen; Ajenjo, Nuria; Becerra, Mercedes; Alfonso, Patricia; Reymundo, Maria Isabel; Palacios, Irene; Mateos, Genoveva; Quinones, Helena; Corrionero, Ana; Carnero, Amancio; Pevarello, Paolo; Lopez, Ana Rodriguez; Fominaya, Jesus; Pastor, Joaquin; Bischoff, James R. Cancer Letters (Shannon, Ireland) 2011, 300(2), 145-153

SW620 [6] = assay: Combination assay, SW620; assay type: cell-based, human; conditions: Homo sapiens, SW-620; SW620, chemotherapeutic alone; read-out: Chemo GI50
Experimental: as §4
(§5) The EC50 values of representative combinations are also calculated. The individually measured EC50 values of the chemotherapeutic agent and the example compounds are compared to the EC50 value of the combination. The cell lines are characterised by tumor type. Combination assays are performed as described in: “Pim 1 kinase inhibitor ETP-45299 suppresses cellular proliferation and synergizes with PI3K inhibition”. Blanco-Aparicio, Carmen; Collazo, Ana Maria Garcia; Oyarzabal, Julen; Leal, Juan F.; Albaran, Maria Isabel; Lima, Francisco Ramos; Pequeno, Belen; Ajenjo, Nuria; Becerra, Mercedes; Alfonso, Patricia; Reymundo, Maria Isabel; Palacios, Irene; Mateos, Genoveva; Quinones, Helena; Corrionero, Ana; Carnero, Amancio; Pevarello, Paolo; Lopez, Ana Rodriguez; Fominaya, Jesus; Pastor, Joaquin; Bischoff, James R. Cancer Letters (Shannon, Ireland) 2011, 300(2), 145-153

HCT116 = assay: Combination assay, HCT116; assay type: cell-based; conditions: Homo sapiens, HCT-116; HCT116, chemotherapeutic alone; read-out: Chemo GI50
Experimental: as §4, §5

NC(=O)c1cc2c([nH]1)-c1ccncc1O[C@@H]2C1CCOCC1 (single isomer, unassigned) [Example 71]
EC50 (intracellular HASPIN [1]): 500 to 10000 nM | IC50 (Haspin kinase): 5760 nM | IC50 (CDK8/Cyclin C): 281 nM | EC50 (intracellular CDK8 [2]): 500 to 10000 nM

CCn1c(C(N)=O)cc2c1-c1ccncc1O[C@@H]2C1CCCCC1 (single isomer, unassigned) [Example 90]
GI50 (SW620 [3]): 10000 to 100000 nM | EC50 (intracellular HASPIN [4]): < 500 nM | IC50 (Haspin kinase): 522 nM | GI50 (Molm13): 1000 to 10000 nM | IC50 (CDK8/Cyclin C): 1.36 nM | IC50 (CDK19/Cyclin C): 1.41 nM | EC50 (intracellular CDK8 [5]): < 500 nM | GI50 (MDA-MB-231): 10000 to 100000 nM | GI50 (MV4:11): < 1000 nM

COc1cc(Nc2ncc3c(n2)-c2ccc(Cl)cc2C(c2c(F)cccc2OC)=NC3)ccc1C(=O)O [Alisertib, alisertib, reference compound]
GI50 (DU145): 12500 nM | GI50 (SW620 [6]): 500 nM | GI50 (HCT116): 12500 nM

COCCn1c(C(N)=O)cc2c1-c1ccncc1OC2(C)C [Example 45]
EC50 (intracellular HASPIN [1]): < 500 nM | IC50 (Haspin kinase): 182 nM | IC50 (CDK8/Cyclin C): 4.64 nM | IC50 (CDK19/Cyclin C): 11.5 nM | EC50 (intracellular CDK8 [2]): < 500 nM
